Data reported in patent US20240158339A1, “TYRAMINE CONTAINING HYDROXYCINNAMIC ACID AMIDE DERIVATIVES AND METHODS OF USE THEREOF” (Brightseed, Inc., priority 2018, published 2024).

Experiments:
[1] = target: T1, HNF4α (Homo sapiens, UniProt P41235); assay: Insulin promoter activity assay (HNF4α assay) in T6PNE cells; assay type: cell-based
T1 construct: T6PNE cells (Kiselyuk, et al. (2012) Chem. Biol. 19(7):806-818; Kiselyuk, et al. (2010) J. Biomol; endogenous in cells; host or cells: T6PNE cells
T1 sequence (P41235 1-474): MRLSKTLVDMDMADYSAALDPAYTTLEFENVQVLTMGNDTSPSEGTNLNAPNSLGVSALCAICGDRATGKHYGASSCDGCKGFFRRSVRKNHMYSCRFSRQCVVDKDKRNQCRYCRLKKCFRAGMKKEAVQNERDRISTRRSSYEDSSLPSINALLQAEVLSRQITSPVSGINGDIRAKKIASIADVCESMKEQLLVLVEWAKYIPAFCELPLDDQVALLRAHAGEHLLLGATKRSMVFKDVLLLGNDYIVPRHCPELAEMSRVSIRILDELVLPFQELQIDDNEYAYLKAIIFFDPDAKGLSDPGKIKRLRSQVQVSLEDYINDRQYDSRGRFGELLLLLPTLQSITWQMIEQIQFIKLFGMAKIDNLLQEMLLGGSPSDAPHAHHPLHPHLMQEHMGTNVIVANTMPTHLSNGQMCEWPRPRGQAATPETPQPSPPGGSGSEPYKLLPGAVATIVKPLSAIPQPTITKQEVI
Procedure: Insulin Promoter Activity. T6PNE cells (Kiselyuk, et al. (2012) Chem. Biol. 19(7):806-818; Kiselyuk, et al. (2010) J. Biomol. Screen 15(6):663-70) are seeded at 2000 cells per well in 384-well tissue culture plates in the presence of 1 μM tamoxifen and 0.03 mM palmitate. After a 24-hour incubation, a compound of the invention is added to the cells. Forty-eight hours after compound addition, cells are fixed in 4% paraformaldehyde and stained with DAPI. Blue (DAPI) and green (human insulin promoter driving GFP) channels are imaged.
Inhibition of HNF4α GFP Expression. Using the insulin promoter assay described herein, activity of HNF4α was assessed in the presence of BI-6015 (0, 2.5, 5 μM), a known antagonist of HNF4α (Kiselyuk, et al. (2012) Chem. Biol. 19(7):806-818), in combination with N-trans-caffeoyltyramine (0, 5, 10, 20 μM).
Given the role of HNF4α in maintaining a health metabolism in humans, test compounds were screened for activity as HNF4α agonists (either direct or indirect effects). Using a known insulin promoter-reporter assay Kiselyuk and colleagues (2010. J. Biomol. Screen 15(6):663-70) screened a library of compounds for activity to promote insulin activation. […] The OTC promoter is known to be responsive to HNF4α in transient transfection assays (Inoue, et al. (2002) J. Biol. Chem. 277:25257-65).
Plant compounds in the top 10th percentile of similarity to the 18 target structures were selected and compounds predicted to be potential agonists of HNF4α activity given their chemical structural features were screened in the HNF4α assay.

[2] = test system: insulin mRNA; assay: Insulin mRNA levels by quantitative PCR; assay type: cell-based; settings: FIG. 2
Procedure: (§1) Expression of Insulin and HNF4α. RNA was purified using a RNEASY® chromatographic separation and isolation kits (Qiagen), and converted to cDNA using the gScript™ cDNA SuperMix (Quanta Biosciences). Q-PCR was conducted with cDNA corresponding to 2 μg of RNA using an Opticon Real-Time System (MJ Research) and QPCR SuperMix (BioPioneer). See All mRNA values were normalized to 18S rRNA values and are expressed as fold changes over vehicle-treated control.

[3] = test system: HNF4α mRNA; assay: HNF4α mRNA levels by quantitative PCR; assay type: cell-based; settings: FIG. 3
Procedure: as §1

[4] = Hepatic microsome stability assay, human; assay type: in vitro ADME
Procedure: Hepatic Microsome Assay. Hepatic microsomes stability assays were performed in accordance with known methods (Peddibhotla, et al. (2013) ACS Med. Chem. Lett. 4:846-851). Briefly, 3 μL of 25 μM compound solution in acetonitrile were incubated with 123 μL of mouse, human or rat liver microsomes (Xenotech, Kansas City, KS). After preincubation at 37° C. for 10 minutes, enzyme reactions were initiated by adding 120 !at of NADPH-generating system (2 mM NADP+, 10 mM glucose-6-phosphate, 0.4 U/ml glucose-6-phosphate dehydrogenase, and 5 mM MgCl2) in the presence of 100 mM potassium phosphate buffer (pH 7.4). […] The microsomal concentrations used were 1.0 mg/mL. Compounds were incubated in microsomes for 0, 5, 15, 30 and 60 minutes. The reactions were stopped by the addition of ice cold ACN and the reaction mixtures were centrifuged at 10,000 g for 10 minutes before the supernatant was removed for analysis. A 10 μL portion of the resulting extract was injected on a Thermo HPLC system equipped with PAL CTC plate sampler (96-well plate), Dionex Ultimate 3000 binary pump (flow rate at 0. 600 mL/min), Dionex Ultimate 3000 thermostatted column compartment (temperature at 40° C.), Thermo Endura Mass Spectrometer (ESI source), using a Thermo Scientific Accucore C18 (2.6 μM, 2.1×50 mm) column. A gradient was run starting at 95% H2O (0.1% formic acid) and 5% ACN (0. 1% formic acid) during the first 0. 5 min, then under gradient condition of 5-100% ACN (0.1% formic acid) from minute 0. 5 to 3.5, finishing at 95% H2O (0.1% formic acid) and 5% ACN (0.1% formic acid) over 0.5 min, with another 1 min at 95:5 to re-equilibrate.

[5] = test system: HepG2 cells; assay: Lipid clearance (steatosis assay) in HepG2 cells; assay type: cell-based; settings: HepG2 liver cells, 20 μM
Procedure: Lipid Clearance in HepG2 and T6PNE Cells (Steatosis Assay). The steatosis assay was carried out as described (Kiselyuk, et al. (2012) Chem. Biol. 19(7):806-818) with the exception of the drug concentration, which was 20 μM for N-trans-caffeoyltyramine with 0.25 mM palmitate in HepG2 cell lines, and 10 μM of either N-trans-caffeoyltyramine, N-trans-caffeoyltyramine, or p-coumaroyltyramine, with 0.25 mM palmitate in T6PNE cell lines. Steatosis was assessed using the Oil Red O Method for Fats kits (Poly Scientific; Warrington, PA), per manufacturer's guidelines. Briefly, frozen tissue slides or fixed cells were incubated in neat propylene glycol for 2 minutes and Oil Red O solution for […] for slides or 1 hour for fixed cells, differentiated in 85% propylene glycol solution for 1 minute, washed twice with distilled water and stained in Hematoxylin of 10 seconds. Slides were mounted with glycerin jelly mounting medium.

[6] = in vivo; settings: male, C57BL/6, mouse
Procedure: Bioavailability Determinations.
A blood sample from each mouse was drawn at 0.25, 0.5, 1, 2, 4, 6 and 24 hours after administration. An 8μL aliquot of blood was used for analysis. After adding 200 μL of an internal standard comprising 100 ng/mL Labetalol, 100 ng/mL dexamethasone, 100 ng/mL tolbutamide, 100 ng/mL Verapamil, 100 ng/mL Glyburide, and 100 ng/mL Celecoxib in ACN, the mixture was vortex-mixed and centrifuged at 12000 rpm for 15 minutes at 4° C. to pellet precipitated protein. Four μL at of the supernatant was injected for LC-MS/MS analysis. Bioavailability (%) was calculated using AUC0-inf(% AUCExtra<20%) or AUC0-last, (% AUCExtra >20%) with nominal dose.

## O=C(/C=C/c1ccc(O)c(O)c1)NCCc1ccc(O)cc1 [N-trans-caffeoyltyramine]
[1]; FIG. 1, dose-response, insulin promoter activity
  potency in activating HNF4α relative to Alverine: roughly an order-of-magnitude more potent than Alverine
[1]; HNF4α assay, screening and SAR statements
  HNF4α activation / bioactivity (screening result in words): able to act as HNF4α modulators
[2]
  insulin gene expression: upregulated
[3]
  HNF4α gene expression: upregulated
[4]; human microsomes
  apparent major biotransformation pathway: oxidation of the left-hand aryl ring
[4]; human microsomes, 1 μM
  % Remaining: 55.3%
[4]; human microsomes, 10 μM
  % Remaining: 85.4%
[4]; human, rat and mouse hepatic microsomes
  stability in hepatic microsomes: stable
[4]; liver microsomes, pH 7.4, human microsomes, 1 μM
  half-life at 1 μM: 1.29 h
[4]; liver microsomes, pH 7.4, human microsomes, 1 μM, read-out: Clearance Rate
  microsomal CLint at 1 μM: 17.9 µL/min/mg
[4]; liver microsomes, pH 7.4, human microsomes, 10 μM
  half-life at 10 μM: 4.37 h
[4]; liver microsomes, pH 7.4, human microsomes, 10 μM, read-out: Clearance Rate
  microsomal CLint at 10 μM: 5.3 µL/min/mg
[5]
  clearing of fats, Oil Red O staining: capable of clearing harmful fats from the liver
[5]; 0.25 mM palmitate
  accumulation of fats: inhibited accumulation of fats
[6]
  bioavailability: ~11%
